Each compound was assayed against T1, Aromatase (Homo sapiens, UniProt P11511).
T1 sequence (P11511 whole entry): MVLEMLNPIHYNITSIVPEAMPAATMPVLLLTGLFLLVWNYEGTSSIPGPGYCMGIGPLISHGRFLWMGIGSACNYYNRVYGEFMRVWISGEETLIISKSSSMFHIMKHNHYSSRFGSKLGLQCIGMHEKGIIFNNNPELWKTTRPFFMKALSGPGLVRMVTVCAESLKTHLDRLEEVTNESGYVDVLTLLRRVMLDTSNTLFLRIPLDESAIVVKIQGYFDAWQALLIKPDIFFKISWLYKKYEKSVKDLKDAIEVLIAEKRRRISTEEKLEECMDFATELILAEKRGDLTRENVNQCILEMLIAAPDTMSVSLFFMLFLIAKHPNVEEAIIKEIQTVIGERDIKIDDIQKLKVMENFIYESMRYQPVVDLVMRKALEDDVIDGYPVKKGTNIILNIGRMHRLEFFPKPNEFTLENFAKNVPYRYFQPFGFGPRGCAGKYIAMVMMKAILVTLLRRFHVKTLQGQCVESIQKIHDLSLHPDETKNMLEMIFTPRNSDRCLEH
Description: Inhibition of human placental Cytochrome P450 19A1
In the case of `C[C@]12CC[C@H]3[C@@H](CCC4=CC(=O)CC[C@@]43C[C@@H]3CO3)[C@@H]1CCC2=O`, the Ki is reported as 753 nM. Work on `C[C@]12CC[C@H]3[C@@H](CCC4=CC(=O)CC[C@@]43C[C@H]3CO3)[C@@H]1CCC2=O` yielded a Ki of 86 nM. With `C[C@]12CC[C@H]3[C@@H](CCC4=CC(=O)CC[C@@]43C[C@H]3CS3)[C@@H]1CCC2=O` the Ki was 22 nM. In the case of `C[C@]12CC[C@H]3[C@@H](CCC4=CC(=O)CC[C@@]43C[C@@H]3CS3)[C@@H]1CCC2=O`, the Ki is reported as 206 nM.

— ChEMBL document CHEMBL1125662, “Inhibition of human placental aromatase by novel homologated 19-oxiranyl and 19-thiiranyl steroids” (J Med Chem, 1991)
